Measurements reported in US8048903B2, “5-iodotetrazoles” (LANXESS Deutschland GmbH, priority 2004, dated 2011).
In brackets after ≈: the same amount, converted by molar mass.

Assays:
[1] = tested on: mold fungi (Alternaria tenuis, Aspergillus flavus, Aspergillus niger, Aspergillus ustus, Cindosporum herbarum, Paecilomyces variotii, Penicillium citrium …); experiment: Test of dispersion coatings for resistance to mold; format: cell-based; settings: coatings according to recipe A containing 1.0% (based on solids) of compound; even after rinsing out and wind tunnel exposure; 2-3 weeks, 29±1° C., 80-90% rel. humidity
Protocol: To test dispersion coatings for resistance to mold, the following procedure was adopted:
The paint to be tested was applied to both sides of a suitable base. To obtain results which are close to practice, some of the test specimens were rinsed out with running water (24 h, 20° C.) before the test for mold resistance; others were treated with a current of warm fresh air (7 days, 40° C.).
The samples prepared in this way were then placed on an agar nutrient medium, and both samples and nutrient medium were contaminated with fungal spores. After 2-3 weeks storage (29±1° C., 80-90% rel. atmospheric humidity), the samples were compared.
The coating is considered to be permanently mold-resistant if the sample remains free from fungus or at most a slight border infestation can be detected.
For the contamination, fungal spores of the following mold fungi were used, which are known as paint destroyers or are frequently encountered on coatings: […]

Chaetomium globosum = experiment: Minimum inhibitory concentration (MIC) against fungi on malt extract agar; format: cell-based; settings: 336 h, 2 weeks at 28° C., 60 to 70% relative atmospheric humidity, read-out: Minimum inhibitory concentrations Chaetomium globosum
Protocol: (§1) In each case, the active compounds according to the invention, in concentrations of from 0.1 mg/l to 5000 mg/l, were added to an agar which had been prepared using malt extracts. The MIC was determined after 2 weeks of storage at 28° C. and 60 to 70% relative atmospheric humidity. The MIC is the lowest concentration of active compound at which there is no colonization by the microbial species used.

Aspergillus niger = experiment: as above; format: cell-based; settings: 336 h, 2 weeks at 28° C., 60 to 70% relative atmospheric humidity, read-out: Minimum inhibitory concentrations Aspergillus niger
Protocol: as §1

Penicillium brevicaule = experiment: as above; format: cell-based; settings: 336 h, 2 weeks at 28° C., 60 to 70% relative atmospheric humidity, read-out: Minimum inhibitory concentrations Penicillium brevicaule
Protocol: as §1

## Ic1nnnn1-c1ccccc1 [Example 2, 5-Iodo-1-phenyltetrazole]
other
  melting point: 123 to 129 °C
[1]
  Mold resistance of coating: mold resistant
Chaetomium globosum
  MIC: < 40 µg/mL
Aspergillus niger
  MIC: < 40 µg/mL
Penicillium brevicaule
  MIC: < 40 µg/mL

## CCCCn1nnnc1I [Example 1, 5-Iodo-1-butyltetrazole]
other
  melting point: 31 to 37 °C
Chaetomium globosum
  MIC: 5 µg/mL (≈ 19.8 µM)
Aspergillus niger
  MIC: 5 µg/mL (≈ 19.8 µM)
Penicillium brevicaule
  MIC: < 1 µg/mL
